In the experiment the target is T1, ligand binding domain of human FXR (Homo sapiens, UniProt Q96RI1).
T1 construct: purchased Thermofisher (LanthaScreen) PV4833
T1 sequence (Q96RI1 262-486 limits assumed): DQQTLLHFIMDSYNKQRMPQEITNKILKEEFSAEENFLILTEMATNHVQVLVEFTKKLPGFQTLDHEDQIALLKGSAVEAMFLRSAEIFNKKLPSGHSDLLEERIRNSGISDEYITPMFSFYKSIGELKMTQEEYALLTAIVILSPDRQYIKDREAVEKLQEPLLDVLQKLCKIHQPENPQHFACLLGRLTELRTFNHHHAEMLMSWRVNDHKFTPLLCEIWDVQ
Nature of the experiment: biochemical. The conditions noted are these: for Emax: extent of activation relative to GW4064, read-out: Ligand Binding % Efficacy; for EC50: −log EC50, concentration required to produce 50% activation, FRET 520 nm/495 nm, 1 hour at room temperature, read-out: Ligand Binding pEC50 (converted). Here is the method:
The affinity of FXR ligands for the ligand binding domain of FXR was determined using a commercially available human FXR ligand binding assay (LanthaScreen, Thermofisher Cat #PV4833). […] Binding of FXR ligands to the FXR ligand binding domain promotes binding of the fluorescein-labelled SRC2-2 peptide. This causes a FRET signal between the terbium-labelled anti-GST antibody and the fluorescein-labelled SRC peptide which are both bound to the FXR ligand binding domain.
Test compounds are dissolved in DMSO and a 3-fold serial dilution series is generated, then further diluted into assay buffer. The compounds are mixed with 5 nM GST-tagged FXR ligand binding domain, 5 nM Tb-labelled anti-GST antibody and 500 nM fluorescein-labelled SRC2-2 peptide in a pH7.4 buffer. The reaction is incubated at room temperature for 1 hour, then the FRET signal is measured as the ratio of the 520 nm/495 nm emission following excitation at 340 nm. The change in FRET signal is plotted against the test article concentration and fit to a 3-parameter logistical equation.

`O=C(O)c1c(F)cc(N2C[C@@H]3C[C@H]2C[C@H]3OCc2c(C3CC3)cnn2-c2c(Cl)cccc2Cl)cc1F` [Compound I-3, 4-[(1S,4S,5R)-5-{[4-cyclopropyl-1-(2,6-dichlorophenyl)-1H-pyrazol-5-yl]methoxy}-2-azabicyclo[2.2.1]heptan-2-yl]-2,6-difluorobenzoic acid]: the Emax came to 156% and the EC50 is 39.8 nM.

`O=C(O)c1ccc(N2C[C@@H]3C[C@H]2C[C@H]3OCc2c(C3CC3)cnn2-c2c(Cl)cccc2Cl)nc1` [Compound I-4, 6-[(1S,4S,5R)-5-{[4-cyclopropyl-1-(2,6-dichlorophenyl)-1H-pyrazol-5-yl]methoxy}-2-azabicyclo[2.2.1]heptan-2-yl]pyridine-3-carboxylic acid]: the Emax amounted to 132% and the EC50 is 100 nM.

Consider `O=C(O)c1ccc(N2C[C@@H]3C[C@H]2C[C@H]3OCc2c(C3CC3)cnn2-c2c(Cl)cccc2Cl)cn1` [Compound I-5, 5-[(1S,4S,5R)-5-{[4-cyclopropyl-1-(2,6-dichlorophenyl)-1H-pyrazol-5-yl]methoxy}-2-azabicyclo[2.2.1]heptan-2-yl]pyridine-2-carboxylic acid], for which the Emax amounted to 119% and the EC50 was 251 nM. In the case of `O=C(O)c1ncc(N2C[C@@H]3C[C@H]2C[C@H]3OCc2c(C3CC3)cnn2-c2c(Cl)cccc2Cl)cn1` [Compound I-6, 5-[(1S,4S,5R)-5-{[4-cyclopropyl-1-(2,6-dichlorophenyl)-1H-pyrazol-5-yl]methoxy}-2-azabicyclo[2.2.1]heptan-2-yl]pyrimidine-2-carboxylic acid], the Emax was 101%.

Consider `Cc1cccc(C)c1-n1ncc(C2CC2)c1CO[C@@H]1C[C@@H]2C[C@H]1CN2c1ccc(C(=O)O)c(F)c1` [Compound I-7, 4-[(1S,4S,5R)-5-{[4-cyclopropyl-1-(2,6-dimethylphenyl)-1H-pyrazol-5-yl]methoxy}-2-azabicyclo[2.2.1]heptan-2-yl]-2-fluorobenzoic acid], for which the Emax stood at 134% and the EC50 was 25.1 nM. For `Cc1cccc(Cl)c1-n1ncc(C2CC2)c1CO[C@@H]1C[C@@H]2C[C@H]1CN2c1ccc(C(=O)O)c(F)c1` [Compound I-8, 4-[(1S,4S,5R)-5-{[1-(2-chloro-6-methylphenyl)-4-cyclopropyl-1H-pyrazol-5-yl]methoxy}-2-azabicyclo[2.2.1]heptan-2-yl]-2-fluorobenzoic acid], the Emax amounted to 164% and the EC50 was 7.94 nM. As to `O=C(O)c1ccc(N2C[C@@H]3C[C@H]2C[C@H]3OCc2c(C3CC3)cnn2-c2c(F)cccc2Cl)cc1F` [Compound I-9, 4-[(1S,4S,5R)-5-{[1-(2-chloro-6-fluorophenyl)-4-cyclopropyl-1H-pyrazol-5-yl]methoxy}-2-azabicyclo[2.2.1]heptan-2-yl]-2-fluorobenzoic acid], the Emax was determined as 164% and the EC50 was 39.8 nM. For the molecule `O=C(O)c1ccc(N2C(=O)[C@@H]3C[C@H]2C[C@H]3OCc2c(C3CC3)cnn2-c2c(Cl)cccc2Cl)cc1` [Compound I-11, 4-[(1S,4R,5R)-5-{[4-cyclopropyl-1-(2,6-dichlorophenyl)-1H-pyrazol-5-yl]methoxy}-3-oxo-2-azabicyclo[2.2.1]heptan-2-yl]benzoic acid], the Emax was 152% and the EC50 is 39.8 nM. On to `O=C(O)c1ccc(N2C(=O)[C@@H]3C[C@H]2C[C@H]3OCc2c(C3CC3)cnn2-c2c(Cl)cccc2Cl)cc1F` [Compound I-12, 4-[(1S,4R,5R)-5-{[4-cyclopropyl-1-(2,6-dichlorophenyl)-1H-pyrazol-5-yl]methoxy}-3-oxo-2-azabicyclo[2.2.1]heptan-2-yl]-2-fluorobenzoic acid], for which the Emax was determined as 176% and the EC50 was 39.8 nM.

As to `O=C(O)c1ccc(N2C(=O)[C@@H]3C[C@H]2C[C@H]3OCc2c(C3CC3)cnn2-c2c(Cl)cccc2Cl)c(F)c1` [Compound I-13, 4-[(1S,4R,5R)-5-{[4-cyclopropyl-1-(2,6-dichlorophenyl)-1H-pyrazol-5-yl]methoxy}-3-oxo-2-azabicyclo[2.2.1]heptan-2-yl]-3-fluorobenzoic acid], the Emax turned out to be 142% and the EC50 was 158 nM.

For the molecule `C[C@@H]1[C@@H]2C[C@@H](C[C@H]2OCc2c(C3CC3)cnn2-c2c(Cl)cccc2Cl)N1c1ccc(C(=O)O)cc1` [Compound I-14, 4-[(1S,3R,4S,5R)-5-{[4-cyclopropyl-1-(2,6-dichlorophenyl)-1H-pyrazol-5-yl]methoxy}-3-methyl-2-azabicyclo[2.2.1]heptan-2-yl]benzoic acid], the Emax amounted to 48% and the EC50 is 398 nM. For `C[C@@H]1[C@@H]2C[C@@H](C[C@H]2OCc2c(C3CC3)cnn2-c2c(Cl)cccc2Cl)N1c1ccc(C(=O)O)c(F)c1` [Compound I-15, 4-[(1S,3R,4S,5R)-5-{[4-cyclopropyl-1-(2,6-dichlorophenyl)-1H-pyrazol-5-yl]methoxy}-3-methyl-2-azabicyclo[2.2.1]heptan-2-yl]-2-fluorobenzoic acid] the same measures were 44% and 1000 nM. Regarding `CC[C@@H]1[C@@H]2C[C@@H](C[C@H]2OCc2c(C3CC3)cnn2-c2c(Cl)cccc2Cl)N1c1ccc(C(=O)O)cc1` [Compound I-16, 4-[(1S,3R,4S,5R)-5-{[4-cyclopropyl-1-(2,6-dichlorophenyl)-1H-pyrazol-5-yl]methoxy}-3-ethyl-2-azabicyclo[2.2.1]heptan-2-yl]benzoic acid], the Emax was 52% and the EC50 was 1000 nM.

As to `CC[C@H]1[C@H]2C[C@H](C[C@@H]2OCc2c(C3CC3)cnn2-c2c(Cl)cccc2Cl)N1c1ccc(C(=O)O)cc1` [Compound I-17, 4-[(1R,3S,4R,5S)-5-{[4-cyclopropyl-1-(2,6-dichlorophenyl)-1H-pyrazol-5-yl]methoxy}-3-ethyl-2-azabicyclo[2.2.1]heptan-2-yl]benzoic acid], the Emax amounted to 15%. In the case of `CC[C@@H]1[C@@H]2C[C@@H](C[C@H]2OCc2c(C3CC3)cnn2-c2c(Cl)cccc2Cl)N1c1ccc(C(=O)O)c(F)c1` [Compound I-18, 4-[(1S,3R,4S,5R)-5-{[4-cyclopropyl-1-(2,6-dichlorophenyl)-1H-pyrazol-5-yl]methoxy}-3-ethyl-2-azabicyclo[2.2.1]heptan-2-yl]-2-fluorobenzoic acid], the Emax was determined as 47%.

On to `CC[C@H]1[C@H]2C[C@H](C[C@@H]2OCc2c(C3CC3)cnn2-c2c(Cl)cccc2Cl)N1c1ccc(C(=O)O)c(F)c1` [Compound I-19, 4-[(1R,3S,4R,5S)-5-{[4-cyclopropyl-1-(2,6-dichlorophenyl)-1H-pyrazol-5-yl]methoxy}-3-ethyl-2-azabicyclo[2.2.1]heptan-2-yl]-2-fluorobenzoic acid], for which the Emax amounted to 30%.

Take `CC1(C)CC(S(=O)(=O)NC(=O)c2ccc(N3C[C@@H]4C[C@H]3C[C@H]4OCc3c(C4CC4)cnn3-c3c(Cl)cccc3Cl)cc2)CCO1` (stereo partly drawn) [Compound I-21, 4-[(1S,4S,5R)-5-{[4-cyclopropyl-1-(2,6-dichlorophenyl)-1H-pyrazol-5-yl]methoxy}-2-azabicyclo[2.2.1]heptan-2-yl]-N-[(2,2-dimethyloxan-4-yl)sulfonyl]benzamide]: the Emax was determined as 174% and the EC50 is 1.58 nM. Take `O=C(NS(=O)(=O)C1CC1)c1ccc(N2C[C@@H]3C[C@H]2C[C@H]3OCc2c(C3CC3)cnn2-c2c(Cl)cccc2Cl)cc1` [Compound I-22, 4-((1S,4S,5R)-5-((4-cyclopropyl-1-(2,6-dichlorophenyl)-1H-pyrazol-5-yl)methoxy)-2-azabicyclo[2.2.1]heptan-2-yl)-N-(cyclopropylsulfonyl)benzamide]: the Emax stood at 166% and the EC50 is 3.98 nM.

Take `O=C(NS(=O)(=O)C1CCOCC1)c1ccc(N2C[C@@H]3C[C@H]2C[C@H]3OCc2c(C3CC3)cnn2-c2c(Cl)cccc2Cl)cn1` [Compound I-25, 5-((1S,4S,5R)-5-((4-cyclopropyl-1-(2,6-dichlorophenyl)-1H-pyrazol-5-yl)methoxy)-2-azabicyclo[2.2.1]heptan-2-yl)-N-((tetrahydro-2H-pyran-4-yl)sulfonyl)picolinamide]: the Emax came out at 130% and the EC50 is 25.1 nM.

Consider `O=C(NS(=O)(=O)C1CCOCC1)c1ccc(N2C(=O)[C@@H]3C[C@H]2C[C@H]3OCc2c(C3CC3)cnn2-c2c(Cl)cccc2Cl)cc1` [Compound I-26, 4-((1S,4R,5R)-5-((4-cyclopropyl-1-(2,6-dichlorophenyl)-1H-pyrazol-5-yl)methoxy)-3-oxo-2-azabicyclo[2.2.1]heptan-2-yl)-N-((tetrahydro-2H-pyran-4-yl)sulfonyl)benzamide], for which the Emax is 169% and the EC50 is 10 nM. For `O=C(NS(=O)(=O)C1CCOCC1)c1ccc(N2C(=O)[C@@H]3C[C@H]2C[C@H]3OCc2c(C3CC3)cnn2-c2c(Cl)cccc2Cl)cc1F` [Compound I-27, 4-((1S,4R,5R)-5-((4-cyclopropyl-1-(2,6-dichlorophenyl)-1H-pyrazol-5-yl)methoxy)-3-oxo-2-azabicyclo[2.2.1]heptan-2-yl)-2-fluoro-N-((tetrahydro-2H-pyran-4-yl)sulfonyl)benzamide] the same measures were 185% and 5.01 nM.

The values are drawn from US11753410B2, “Hormone receptor modulators for treating metabolic mutagenic and fibrotic conditions and disorders” (priority 2017, dated 2023).
